What was measured:
[1] = molecular target: hMC4-R (Homo sapiens, UniProt P32245); experiment: Competitive inhibition binding assay, 125I-NDP-α-MSH, hMC4-R membranes; settings: 1 μM test compound; 0.4 nM 125I-NDP-α-MSH; mean of triplicate; results less than 0% reported as 0%; read-out: Inhibition at 1 μM MC4-R
Description: (§1) Competitive inhibition assay. A competitive inhibition binding assay was conducted using membranes prepared from hMC1-R or B-16 mouse melanoma cells (containing MC1-R), hMC3-R, hMC4-R, and hMC5-R, and using 0.4 nM ^125I-NDP-α-MSH (New England Nuclear, Boston, Mass., USA) in 50 mM HEPES buffer containing 1 mM MgCl2, 2 mM CaCl2, and 5 mM KCl, at pH 7.2. The assay tube also contained a chosen concentration of the test compound of this invention, typically a 1 μM concentration, for determining its efficacy in inhibiting the binding of ^125I-NDP-α-MSH to its receptor. Non-specific binding was measured by complete inhibition of binding of ^125I-NDP-α-MSH in the assay with the presence of 1 μM α-MSH.
(§2) Incubation was for 90 minutes at room temperature, after which the assay mixture was filtered and the membranes washed three times with ice cold buffer. The filter was dried and counted in a gamma counter for remaining radioactivity bound to the membranes. 100% specific binding was defined as the difference in radioactivity (cpm) bound to cell membranes in the absence and presence of 1 μM α-MSH. The cpm obtained in the presence of test compounds are normalized with respect to 100% specific binding to determine the percent inhibition of ^125I-NDP-a-MSH binding. Each assay was conducted in triplicate and the actual mean values are described, with results less than 0% reported as 0%.

[2] = molecular target: hMC5-R (Homo sapiens, UniProt P33032); experiment: Competitive inhibition binding assay, 125I-NDP-α-MSH, hMC5-R membranes; settings: 1 μM test compound; 0.4 nM 125I-NDP-α-MSH; mean of triplicate; results less than 0% reported as 0%; read-out: Inhibition at 1 μM MC5-R
Description: as §1, §2

[3] = molecular target: T1, B-16 mouse melanoma cells (containing MC1-R) (Mus musculus, UniProt Q01727); experiment: Competitive inhibition binding assay, 125I-NDP-α-MSH, B-16 mouse melanoma cell membranes; settings: 1 μM test compound; 0.4 nM 125I-NDP-α-MSH; mean of triplicate; results less than 0% reported as 0%; read-out: Inhibition at 1 μM MC1-R (murine)
T1 construct: B-16 mouse melanoma cells (containing MC1-R); endogenous in cells; host or cells: B-16 mouse melanoma cells
Description: as §1, §2

[4] = molecular target: hMC3-R (Homo sapiens, UniProt P41968); experiment: Competitive inhibition binding assay, 125I-NDP-α-MSH, hMC3-R membranes; settings: 1 μM test compound; 0.4 nM 125I-NDP-α-MSH; mean of triplicate; results less than 0% reported as 0%; read-out: Inhibition at 1 μM MC3-R
Description: as §1, §2

hMC4-R, sequence (P32245 whole entry): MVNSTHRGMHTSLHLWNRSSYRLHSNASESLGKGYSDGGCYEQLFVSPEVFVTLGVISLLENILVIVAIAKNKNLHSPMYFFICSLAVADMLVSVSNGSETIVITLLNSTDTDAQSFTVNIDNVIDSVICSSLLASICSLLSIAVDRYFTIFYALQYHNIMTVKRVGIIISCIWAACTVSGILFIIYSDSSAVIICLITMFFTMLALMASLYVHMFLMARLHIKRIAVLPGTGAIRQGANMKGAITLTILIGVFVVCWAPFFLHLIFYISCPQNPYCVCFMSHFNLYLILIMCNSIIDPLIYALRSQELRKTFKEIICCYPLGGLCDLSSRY
hMC3-R, sequence (P41968 whole entry): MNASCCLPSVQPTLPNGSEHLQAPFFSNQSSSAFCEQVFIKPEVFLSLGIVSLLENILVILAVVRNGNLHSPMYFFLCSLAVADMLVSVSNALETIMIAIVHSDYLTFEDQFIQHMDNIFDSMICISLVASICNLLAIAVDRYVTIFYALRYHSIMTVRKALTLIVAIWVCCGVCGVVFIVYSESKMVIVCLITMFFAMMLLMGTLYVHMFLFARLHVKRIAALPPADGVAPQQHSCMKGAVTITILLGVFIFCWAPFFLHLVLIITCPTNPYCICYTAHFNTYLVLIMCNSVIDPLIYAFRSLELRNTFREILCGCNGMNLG
T1 sequence (Q01727 whole entry): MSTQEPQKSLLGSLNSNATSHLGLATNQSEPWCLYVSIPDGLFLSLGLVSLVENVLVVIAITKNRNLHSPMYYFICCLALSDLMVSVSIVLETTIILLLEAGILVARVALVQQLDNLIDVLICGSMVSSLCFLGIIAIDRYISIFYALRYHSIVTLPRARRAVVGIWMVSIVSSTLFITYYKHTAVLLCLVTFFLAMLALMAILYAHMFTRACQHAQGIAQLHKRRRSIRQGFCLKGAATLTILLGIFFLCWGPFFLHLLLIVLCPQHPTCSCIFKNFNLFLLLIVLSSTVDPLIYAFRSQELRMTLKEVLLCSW
hMC5-R, sequence (P33032 whole entry): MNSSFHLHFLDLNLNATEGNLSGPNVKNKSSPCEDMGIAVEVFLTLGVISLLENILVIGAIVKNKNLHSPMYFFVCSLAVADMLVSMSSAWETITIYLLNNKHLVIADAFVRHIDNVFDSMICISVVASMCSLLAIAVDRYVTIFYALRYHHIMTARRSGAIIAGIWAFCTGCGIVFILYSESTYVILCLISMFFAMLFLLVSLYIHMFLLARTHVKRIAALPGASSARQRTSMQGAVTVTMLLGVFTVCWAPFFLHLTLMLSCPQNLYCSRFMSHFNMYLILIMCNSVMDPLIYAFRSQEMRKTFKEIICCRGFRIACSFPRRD

| inhibition at 1 µM [1] [%] | inhibition at 1 µM [2] [%] | inhibition at 1 µM [3] [%] | inhibition at 1 µM [4] [%] | SMILES |
| --- | --- | --- | --- | --- |
| 9 | 0 | 4 | 19 | N[C@H](Cc1ccccc1Cl)C(=O)N1CCN[C@H](Cc2ccc3ccccc3c2)C1 [Example 11, (R)-2-Amino-3-(2-chloro-phenyl)-1-((R)-3-naphthalen-2-ylmethyl-piperazin-1-yl)-propan-1-one] |
| 0 | 12 | 52 | 18 | N[C@@H](Cc1c[nH]cn1)C(=O)N[C@H](Cc1ccccc1Cl)C(=O)N1CCN[C@H](Cc2ccc3ccccc3c2)C1 [Example 12, (S)-2-Amino-N—[(R)-1-(2-chloro-benzyl)-2-((R)-3-naphthalen-2-ylmethyl-piperazin-1-yl)-2-oxo-ethyl]-3-(1H-imidazol-4-yl)-propionamide] |
| 19 | 20 | 24 | 17 | O=C(N[C@H](Cc1ccccc1Cl)C(=O)N1CCN[C@H](Cc2ccc3ccccc3c2)C1)[C@H]1Cc2ccccc2CN1 [Example 13, (R)-1,2,3,4-Tetrahydro-isoquinoline-3-carboxylic acid [(R)-1-(2-chloro-benzyl)-2-((R)-3-naphthalen-2-ylmethyl-piperazin-1-yl)-2-oxo-ethyl]-amide] |
| 56 | 23 | 46 | 33 | N[C@@H](COCc1ccccc1)C(=O)N[C@H](Cc1ccccc1Cl)C(=O)N1CCN[C@H](Cc2ccc3ccccc3c2)C1 [Example 14, (S)-2-Amino-3-benzyloxy-N—[(R)-1-(2-chloro-benzyl)-2-((R)-3-naphthalen-2-ylmethyl-piperazin-1-yl)-2-oxo-ethyl]-propionamide] |
| 25 | 0 | 71 | 18 | N[C@@H](Cc1c[nH]cn1)C(=O)N[C@H](Cc1ccc(Cl)cc1)C(=O)N1CCN[C@H](Cc2ccc3ccccc3c2)C1 [Example 20, (S)-2-Amino-N—[(R)-1-(4-chloro-benzyl)-2-((R)-3-naphthalen-2-ylmethyl-piperazin-1-yl)-2-oxo-ethyl]-3-(1H-imidazol-4-yl)-propionamide] |
| 36 | 27 | 2 | 54 | N[C@@H](COCc1ccccc1)C(=O)N[C@H](Cc1ccc(Cl)cc1)C(=O)N1CCN[C@H](Cc2ccc3ccccc3c2)C1 [Example 22, (S)-2-Amino-3-benzyloxy-N—[(R)-1-(4-chloro-benzyl)-2-((R)-3-naphthalen-2-ylmethyl-piperazin-1-yl)-2-oxo-ethyl]-propionamide] |
| 13 | 4 | 6 | 0 | CC(=O)N[C@H](Cc1ccc(Cl)cc1)C(=O)N1CCN[C@H](Cc2ccc3ccccc3c2)C1 [Example 23, N—[(R)-1-(4-Chloro-benzyl)-2-((R)-3-naphthalen-2-ylmethyl-piperazin-1-yl)-2-oxo-ethyl]-acetamide] |
| 20 | 13 | 5 | 3 | O=C(CCCc1ccccc1)N[C@H](Cc1ccc(Cl)cc1)C(=O)N1CCN[C@H](Cc2ccc3ccccc3c2)C1 [Example 24, N—[(R)-1-(4-Chloro-benzyl)-2-((R)-3-naphthalen-2-ylmethyl-piperazin-1-yl)-2-oxo-ethyl]-4-phenyl-butyramide] |
| 19 | 18 | 5 | 6 | O=C(Cc1ccccc1)N[C@H](Cc1ccc(Cl)cc1)C(=O)N1CCN[C@H](Cc2ccc3ccccc3c2)C1 [Example 25, N—[(R)-1-(4-Chloro-benzyl)-2-((R)-3-naphthalen-2-ylmethyl-piperazin-1-yl)-2-oxo-ethyl]-2-phenyl-acetamide] |
| 4 | 0 | 10 | 0 | CC(=O)Oc1ccccc1C(=O)N[C@H](Cc1ccc(Cl)cc1)C(=O)N1CCN[C@H](Cc2ccc3ccccc3c2)C1 [Example 27] |
| 38 | -4 | 0 | 0 | CCCC(CCC)C(=O)N[C@H](Cc1ccc(Cl)cc1)C(=O)N1CCN[C@H](Cc2ccc3ccccc3c2)C1 [Example 28, 2-Propyl-pentanoic acid [(R)-1-(4-chloro-benzyl)-2-((R)-3-naphthalen-2-ylmethyl-piperazin-1-yl)-2-oxo-ethyl]-amide] |

Second part, the molecule before the results:

| SMILES | inhibition at 1 µM [1] [%] | inhibition at 1 µM [2] [%] | inhibition at 1 µM [3] [%] | inhibition at 1 µM [4] [%] |
| --- | --- | --- | --- | --- |
| N[C@H](Cc1ccc2ccccc2c1)C(=O)N1C[C@H](Cc2ccccc2)NC[C@H]1Cc1ccccc1 [Example 8, (R)-2-Amino-1-((2R,5S)-2,5-dibenzyl-piperazin-1-yl)-3-naphthalen-2-yl-propan-1-one] | 0 | 10 | 0 | 0 |
| N[C@@H](Cc1ccccc1)C(=O)N1C[C@H](Cc2ccccc2)NC[C@H]1Cc1ccccc1 [Example 9, (S)-2-Amino-1-((2R,5S)-2,5-dibenzyl-piperazin-1-yl)-3-phenyl-propan-1-one] | 0 | 0 | 0 | 0 |
| N[C@H](Cc1ccc(Cl)cc1Cl)C(=O)N1C[C@H](Cc2ccccc2)NC[C@H]1Cc1ccccc1 [Example 10, (R)-2-Amino-1-((2R,5S)-2,5-dibenzyl-piperazin-1-yl)-3-(2,4-dichloro-phenyl)-propan-1-one] | 13 | 0 | 0 | 0 |
| N[C@H](Cc1ccc2ccccc2c1)C(=O)N1C[C@@H](Cc2ccccc2)NC[C@@H]1Cc1ccccc1 [Example 15, (R)-2-Amino-1-((2S,5R)-2,5-dibenzyl-piperazin-1-yl)-3-naphthalen-2-yl-propan-1-one] | 18 | 3 | 0 | 0 |
| N[C@H](Cc1ccc(Cl)cc1Cl)C(=O)N1C[C@@H](Cc2ccccc2)NC[C@@H]1Cc1ccccc1 [Example 16, (R)-2-Amino-1-((2S,5R)-2,5-dibenzyl-piperazin-1-yl)-3-(2,4-dichloro-phenyl)-propan-1-one] | 14 | 0 | 0 | 0 |
| N[C@H](Cc1ccccc1)C(=O)N1C[C@@H](Cc2ccccc2)NC[C@@H]1Cc1ccccc1 [Example 17, (R)-2-Amino-1-((2S,5R)-2,5-dibenzyl-piperazin-1-yl)-3-phenyl-propan-1-One] | 6 | 3 | 0 | 0 |
| N[C@@H](Cc1ccccc1)C(=O)N1C[C@@H](Cc2ccccc2)NC[C@@H]1Cc1ccccc1 [Example 18, (S)-2-Amino-1-((2S,5R)-2,5-dibenzyl-piperazin-1-yl)-3-phenyl-propan-1-one] | 8 | 12 | 0 | 0 |
| N[C@H](Cc1ccc(Cl)cc1)C(=O)N1CCN[C@H](Cc2ccc3ccccc3c2)C1 [Example 19, (R)-2-Amino-3-(4-chloro-phenyl)-1-((R)-3-naphthalen-2-ylmethyl-piperazin-1-yl)-propan-1-one] | 21 | 0 | 5 | 0 |
| O=C(N[C@H](Cc1ccc(Cl)cc1)C(=O)N1CCN[C@H](Cc2ccc3ccccc3c2)C1)[C@H]1Cc2ccccc2CN1 [Example 21, (R)-1,2,3,4-Tetrahydro-isoquinoline-3-carboxylic acid [(R)-1-(4-chloro-benzyl)-2-((R)-3-naphthalen-2-ylmethyl-piperazin-1-yl)-2-oxo-ethyl]-amide] | 30 | 14 | 6 | 26 |
| Cc1ccc(S(=O)(=O)N[C@H](Cc2ccc(Cl)cc2)C(=O)N2CCN[C@H](Cc3ccc4ccccc4c3)C2)cc1 [Example 26, N—[(R)-1-(4-Chloro-benzyl)-2-((R)-3-naphthalen-2-ylmethyl-piperazin-1-yl)-2-oxo-ethyl]-4-methyl-benzenesulfonamide] | 22 | 20 | 10 | 14 |

Reference: patent US7709484B1, “Substituted melanocortin receptor-specific piperazine compounds” (Palatin Technologies, Inc., priority 2004, dated 2010)
